Results published in ChEMBL document CHEMBL3880390, “Agents for preventing and treating disorders involving modulation of the RYR receptors” (2014).

Experiments:
[1] = biological target: T1, hERG (KCNH2) (Homo sapiens, UniProt Q12809); test: Inhibition of human ERG expressed in HEK293 cells at 1 uM after 5 mins at -80 mV holding potential by patch clamp assay; format: cell-based; settings: HEK293 cells expressing human ERG
[2] = biological target: T1, hERG (KCNH2); test: Inhibition of human ERG expressed in HEK293 cells at 10 uM after 5 mins at -80 mV holding potential by patch clamp assay; format: cell-based; settings: HEK293 cells expressing human ERG
[3] = biological target: T1, hERG (KCNH2); test: Inhibition of human ERG expressed in HEK293 cells at 0.01 uM after 5 mins at -80 mV holding potential by patch clamp assay; format: cell-based; settings: HEK293 cells expressing human ERG
[4] = biological target: T1, hERG (KCNH2); test: Inhibition of human ERG expressed in HEK293 cells at 0.1 uM after 5 mins at -80 mV holding potential by patch clamp assay; format: cell-based; settings: HEK293 cells expressing human ERG
[5] = biological target: Ryanodine receptor 2 (Homo sapiens, UniProt Q92736); test: Induction of FKBP12.6 re-binding to PKA-phosphorylated-RyR2 (unknown origin) after 30 mins in presence of [35S]-FKBP12.6 by liquid scintillation counting
Sequence of Ryanodine receptor 2 (Q92736 whole entry): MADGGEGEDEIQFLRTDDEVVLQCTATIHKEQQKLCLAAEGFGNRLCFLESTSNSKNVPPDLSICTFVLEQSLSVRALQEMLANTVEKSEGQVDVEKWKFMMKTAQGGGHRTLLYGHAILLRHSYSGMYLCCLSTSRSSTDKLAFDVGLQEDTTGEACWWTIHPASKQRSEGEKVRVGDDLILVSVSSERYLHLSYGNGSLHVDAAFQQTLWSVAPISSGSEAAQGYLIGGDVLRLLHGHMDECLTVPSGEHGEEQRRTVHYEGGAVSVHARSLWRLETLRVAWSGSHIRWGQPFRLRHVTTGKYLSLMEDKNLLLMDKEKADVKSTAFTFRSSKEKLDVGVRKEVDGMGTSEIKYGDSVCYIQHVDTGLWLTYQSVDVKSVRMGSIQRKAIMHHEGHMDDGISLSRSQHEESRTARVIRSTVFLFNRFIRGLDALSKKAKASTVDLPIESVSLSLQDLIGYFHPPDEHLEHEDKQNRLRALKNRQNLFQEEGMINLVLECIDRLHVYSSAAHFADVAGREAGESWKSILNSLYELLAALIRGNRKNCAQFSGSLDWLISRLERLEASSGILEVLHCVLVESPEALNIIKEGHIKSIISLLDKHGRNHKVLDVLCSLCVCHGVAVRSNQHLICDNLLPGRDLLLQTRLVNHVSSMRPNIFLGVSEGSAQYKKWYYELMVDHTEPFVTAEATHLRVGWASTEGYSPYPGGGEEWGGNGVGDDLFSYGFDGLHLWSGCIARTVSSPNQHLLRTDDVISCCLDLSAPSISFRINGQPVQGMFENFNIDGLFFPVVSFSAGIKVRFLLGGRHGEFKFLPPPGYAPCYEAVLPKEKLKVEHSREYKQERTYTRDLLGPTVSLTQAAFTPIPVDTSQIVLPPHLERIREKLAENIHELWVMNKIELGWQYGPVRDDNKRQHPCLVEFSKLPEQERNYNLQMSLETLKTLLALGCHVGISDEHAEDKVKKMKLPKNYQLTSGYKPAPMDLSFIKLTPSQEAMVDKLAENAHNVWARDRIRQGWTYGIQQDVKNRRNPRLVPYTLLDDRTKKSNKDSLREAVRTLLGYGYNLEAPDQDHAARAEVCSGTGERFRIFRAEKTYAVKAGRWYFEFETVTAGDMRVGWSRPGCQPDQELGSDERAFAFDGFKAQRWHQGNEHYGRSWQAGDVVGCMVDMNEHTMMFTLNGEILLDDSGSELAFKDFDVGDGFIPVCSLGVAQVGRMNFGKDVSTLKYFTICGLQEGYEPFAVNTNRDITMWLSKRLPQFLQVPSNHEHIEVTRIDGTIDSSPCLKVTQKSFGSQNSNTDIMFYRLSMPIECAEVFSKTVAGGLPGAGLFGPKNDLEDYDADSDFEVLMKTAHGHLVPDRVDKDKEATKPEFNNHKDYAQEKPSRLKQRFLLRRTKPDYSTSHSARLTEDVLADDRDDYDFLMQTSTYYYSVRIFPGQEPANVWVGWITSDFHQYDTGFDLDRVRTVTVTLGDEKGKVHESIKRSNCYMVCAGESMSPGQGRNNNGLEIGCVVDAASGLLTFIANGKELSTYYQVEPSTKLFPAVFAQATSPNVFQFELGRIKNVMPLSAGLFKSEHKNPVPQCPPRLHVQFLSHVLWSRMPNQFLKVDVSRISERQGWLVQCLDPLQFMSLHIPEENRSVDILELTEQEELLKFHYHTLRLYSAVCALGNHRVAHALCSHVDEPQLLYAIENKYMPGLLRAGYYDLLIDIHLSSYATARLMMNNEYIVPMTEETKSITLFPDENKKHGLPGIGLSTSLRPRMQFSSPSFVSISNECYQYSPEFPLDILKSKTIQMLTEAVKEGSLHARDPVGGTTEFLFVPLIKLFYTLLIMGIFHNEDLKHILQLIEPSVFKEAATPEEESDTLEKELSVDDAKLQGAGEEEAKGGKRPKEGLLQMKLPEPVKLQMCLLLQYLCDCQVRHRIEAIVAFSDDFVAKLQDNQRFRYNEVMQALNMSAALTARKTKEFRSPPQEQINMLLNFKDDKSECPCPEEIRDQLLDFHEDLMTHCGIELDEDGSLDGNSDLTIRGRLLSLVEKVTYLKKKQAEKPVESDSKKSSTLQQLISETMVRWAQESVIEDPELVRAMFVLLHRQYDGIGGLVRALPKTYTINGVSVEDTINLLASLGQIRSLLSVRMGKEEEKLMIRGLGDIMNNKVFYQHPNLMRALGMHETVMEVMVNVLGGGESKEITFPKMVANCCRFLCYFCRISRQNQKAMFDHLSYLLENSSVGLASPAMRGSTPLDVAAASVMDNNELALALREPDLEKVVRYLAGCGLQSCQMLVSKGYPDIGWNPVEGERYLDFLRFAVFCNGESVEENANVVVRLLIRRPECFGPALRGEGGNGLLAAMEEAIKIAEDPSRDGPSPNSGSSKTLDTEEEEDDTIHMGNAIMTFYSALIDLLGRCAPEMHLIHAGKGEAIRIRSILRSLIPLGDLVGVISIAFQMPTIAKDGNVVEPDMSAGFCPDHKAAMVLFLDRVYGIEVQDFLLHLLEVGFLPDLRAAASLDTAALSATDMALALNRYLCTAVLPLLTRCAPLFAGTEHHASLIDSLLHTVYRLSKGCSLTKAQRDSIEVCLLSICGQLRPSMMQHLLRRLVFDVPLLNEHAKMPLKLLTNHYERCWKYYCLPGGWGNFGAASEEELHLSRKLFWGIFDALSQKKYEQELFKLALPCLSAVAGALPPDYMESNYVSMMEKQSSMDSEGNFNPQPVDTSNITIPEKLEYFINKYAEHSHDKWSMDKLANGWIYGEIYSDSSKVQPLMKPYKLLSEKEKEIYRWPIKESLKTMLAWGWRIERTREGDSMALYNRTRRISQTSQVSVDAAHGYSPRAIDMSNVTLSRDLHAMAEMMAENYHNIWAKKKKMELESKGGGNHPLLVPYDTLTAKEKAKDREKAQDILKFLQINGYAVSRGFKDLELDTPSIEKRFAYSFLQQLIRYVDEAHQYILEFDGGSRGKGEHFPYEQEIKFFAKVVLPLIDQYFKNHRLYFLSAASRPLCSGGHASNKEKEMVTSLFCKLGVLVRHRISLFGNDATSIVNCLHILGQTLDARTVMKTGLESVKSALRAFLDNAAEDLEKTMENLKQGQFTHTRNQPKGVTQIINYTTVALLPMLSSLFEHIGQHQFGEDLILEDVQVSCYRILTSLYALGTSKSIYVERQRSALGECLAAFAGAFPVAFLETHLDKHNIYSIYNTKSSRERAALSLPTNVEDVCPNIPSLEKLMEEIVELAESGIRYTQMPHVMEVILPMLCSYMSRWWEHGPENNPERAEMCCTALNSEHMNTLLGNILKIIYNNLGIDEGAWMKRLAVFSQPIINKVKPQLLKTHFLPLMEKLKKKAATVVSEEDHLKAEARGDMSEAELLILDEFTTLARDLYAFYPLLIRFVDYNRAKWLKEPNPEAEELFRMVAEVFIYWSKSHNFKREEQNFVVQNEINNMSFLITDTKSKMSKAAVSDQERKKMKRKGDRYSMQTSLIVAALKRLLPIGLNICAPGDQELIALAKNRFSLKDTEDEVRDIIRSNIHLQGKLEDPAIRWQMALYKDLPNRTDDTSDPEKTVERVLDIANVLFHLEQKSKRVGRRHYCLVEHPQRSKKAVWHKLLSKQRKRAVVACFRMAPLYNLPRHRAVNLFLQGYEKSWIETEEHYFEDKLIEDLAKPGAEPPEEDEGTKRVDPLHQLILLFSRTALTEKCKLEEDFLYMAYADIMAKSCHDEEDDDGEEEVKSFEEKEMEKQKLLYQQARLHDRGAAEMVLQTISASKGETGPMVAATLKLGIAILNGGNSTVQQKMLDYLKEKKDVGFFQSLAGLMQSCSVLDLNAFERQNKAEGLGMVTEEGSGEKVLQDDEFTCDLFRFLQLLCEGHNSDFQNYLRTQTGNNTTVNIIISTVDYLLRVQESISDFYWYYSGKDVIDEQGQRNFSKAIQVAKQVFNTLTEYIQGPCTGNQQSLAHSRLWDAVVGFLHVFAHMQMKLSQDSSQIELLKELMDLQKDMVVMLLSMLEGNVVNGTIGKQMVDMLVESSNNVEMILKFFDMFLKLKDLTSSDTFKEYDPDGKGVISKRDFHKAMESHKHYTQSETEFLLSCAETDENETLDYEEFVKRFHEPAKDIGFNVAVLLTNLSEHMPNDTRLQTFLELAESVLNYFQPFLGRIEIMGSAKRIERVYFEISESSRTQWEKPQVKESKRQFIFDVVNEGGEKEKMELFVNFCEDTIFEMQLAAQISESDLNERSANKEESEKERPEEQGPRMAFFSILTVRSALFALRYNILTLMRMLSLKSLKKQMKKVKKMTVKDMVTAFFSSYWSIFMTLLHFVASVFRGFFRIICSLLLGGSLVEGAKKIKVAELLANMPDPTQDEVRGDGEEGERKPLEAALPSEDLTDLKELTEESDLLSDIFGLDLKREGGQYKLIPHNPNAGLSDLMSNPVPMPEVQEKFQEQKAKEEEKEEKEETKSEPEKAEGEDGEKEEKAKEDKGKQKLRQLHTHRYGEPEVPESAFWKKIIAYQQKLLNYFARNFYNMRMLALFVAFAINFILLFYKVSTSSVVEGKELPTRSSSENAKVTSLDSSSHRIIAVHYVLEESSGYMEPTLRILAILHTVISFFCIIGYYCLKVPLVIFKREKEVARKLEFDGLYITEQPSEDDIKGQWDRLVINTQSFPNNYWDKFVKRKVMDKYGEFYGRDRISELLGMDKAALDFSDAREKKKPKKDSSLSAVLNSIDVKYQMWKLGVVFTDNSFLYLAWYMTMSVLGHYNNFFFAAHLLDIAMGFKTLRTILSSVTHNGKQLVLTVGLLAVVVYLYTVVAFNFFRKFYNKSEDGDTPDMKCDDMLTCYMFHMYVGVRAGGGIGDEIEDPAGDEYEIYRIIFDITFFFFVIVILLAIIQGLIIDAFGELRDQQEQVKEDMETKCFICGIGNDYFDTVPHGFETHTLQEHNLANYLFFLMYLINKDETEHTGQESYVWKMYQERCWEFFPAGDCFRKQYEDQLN

[6] = Cardiotoxicity in haploinsufficient FKBP12.6 expressing mouse assessed as reduction in non-sustained ventricular tachycardia at 0.2 to 1 uM under testing exercise followed by epinephrine injection relative to control; format: toxicity; settings: in vivo
[7] = biological target: L-type calcium channel (Mus musculus, UniProt Q01815+Q02789+Q99246+Q9JIS7); test: Inhibition of L-type Ca2+ channel in mouse cardiomyocytes at holding potential of -80 or -40 mV by whole cell patch clamp assay; format: cell-based

COc1ccc2c(c1)CN(C(=O)C(=O)O)CCS2 [ALADORIAN SODIUM]
inhibition at 5 min, 1 µM [1]: 5.5% | inhibition at 5 min, 10 µM [2]: 6.7% | inhibition at 5 min, 0.01 µM [3]: 0.2% | inhibition at 5 min, 0.1 µM [4]: 6%

COc1ccc2c(c1)CN([P@](=O)(OC)c1ccccc1)CCS2
EC50 [5]: 0.182 µM

COc1ccc2c(c1)CN(C(=O)C(=O)O)CCS2 [ALADORIAN]
Activity [6]: Non-Toxic

O=C(NO)N1CCSc2ccccc2C1
inhibition at 5 min, 1 µM [1]: 1.3% | inhibition at 5 min, 10 µM [2]: 9.5% | inhibition at 5 min, 0.01 µM [3]: 1.9% | inhibition at 5 min, 0.1 µM [4]: 4.8%

COc1ccc2c(c1)CN(C(=O)C(=O)O)CCS2(=O)=O
inhibition at 5 min, 1 µM [1]: 4.6% | inhibition at 5 min, 10 µM [2]: 7.4% | inhibition at 5 min, 0.01 µM [3]: 1.6% | inhibition at 5 min, 0.1 µM [4]: 2.5%

COc1ccc2c(c1)CN([P@@](=O)(OC)c1ccccc1)CCS2
EC50 [5]: 0.174 µM

c1ccc2c(c1)CNCCS2
EC50 [5]: 0.1 µM

COC(=O)C1=C(C)NC(C)=C(C(=O)OC)C1c1ccccc1[N+](=O)[O-] [NIFEDIPINE]
inhibition (INH) [7]: Active

COc1ccc2c(c1)CN(C)CCS2
inhibition at 5 min, 1 µM [1]: 6.2% | inhibition at 5 min, 10 µM [2]: 32.1% | inhibition at 5 min, 0.01 µM [3]: 2.9% | inhibition at 5 min, 0.1 µM [4]: 4%
